We go through one molecule from paper PMC10777851, “SMT-738: a novel small-molecule inhibitor of bacterial lipoprotein transport targeting Enterobacteriaceae” (Antimicrobial Agents and Chemotherapy, 2023).

The test system of one assay is K. pneumoniae ATCC 43816. Briefly: Murine lung infection model (neutropenic). The conditions noted are these: 20 mg/kg per dose QD or BID, 60-min IV infusion, 24 h post-infection. It is filed as in vivo, male CD-1 mice. Here is the method:
Male JVC-cannulated CD-1 mice were rendered neutropenic using cyclophosphamide on days −4 and −1 (150 and 100 mg/kg, respectively). Mice were infected intranasally with K. pneumoniae ATCC 43816, and SMT-738 treatment was initiated at QD, 2 h post-infection; BID, 2 and 5 h post-infection. The pre-treatment control animals were euthanized at 2 h post-infection. All other study animals were euthanized at 24 h post-infection. Lungs were dissected and homogenized and quantitatively cultured, serially diluted, and plated on CLED agar, and CFU were quantified following overnight incubation at 30°C. A Kruskal-Wallis statistical test was performed.

In the next assay the test system is E. coli UTI89. Briefly: Murine UTI infection model. In kind it is in vivo, female C3H/HeN mice. The conditions noted are these: urine and kidney, 20 mg/kg QD or BID, 60-min IV infusion over 3 days, readout 96 h; below the limit of detection. Here is the method:
Female JVC (jugular venous catheter)-cannulated C3H/HeN mice were placed on drinking water which was supplemented with 5% glucose solution prior to infection. Mice were infected transurethrally with E. coli UTI89 following published methods. SMT-738 was intravenously infused over 60 min once (QD) or twice (BID, 4 h after the end of first infusion) per day for 3 days starting 24 h post-inoculation. The mice from pre-treatment group were euthanized (with an overdose of pentobarbitone) at 24 h, the remaining mice were euthanized at 96 h post-infection. The kidney, bladder, and urine were collected and quantitatively cultured by plating serial dilutions on appropriate media; CFU were counted after overnight incubation at 37°C. A Kruskal-Wallis statistical test was performed.

A further assay concerns E. coli NCTC 13441. The experiment in a line: Time-kill experiment, E. coli. The conditions noted are these: 2× and 4× the MIC. In kind it is cell-based, Escherichia coli. Here is the method: An overnight culture of the test strain was diluted to a viable cell density of ~10^6 CFU/mL and dispensed into 96-well plates containing dilutions of SMT-738 to yield the specified multiple of the MIC. Plates were sealed with a breathable seal and incubated under shaking conditions in a humid incubator at 37°C. At specific timepoints (t = 0, 1, 2, 4, 6, 8, and 24 h), samples were taken and plated onto MH agar plates, and colonies enumerated after overnight growth at 37°C. Viable cell numbers as log10 (CFU/mL) were then plotted against time. Where no colonies were detected, the limit of detection was 100 CFU/mL. Compound activity was scored as bactericidal if the viable cell count decreased by at least 3 log10 from the initial count.

For the molecule `Cc1cnccc1-c1[nH]c(N)nc1-c1ccc2c(c1)N(C(=O)C(C)(C)N)CCO2` [SMT-738], in the assay on K. pneumoniae ATCC 43816, the “reduction of the bacterial burden below pre-treatment stasis level” value is 1–2 log10. The “reduction of bacterial burden compared to pre-treatment” value in the assay on E. coli UTI89 was 5–6 log10. Also, in the assay on E. coli NCTC 13441, the “re-growth over the 24-h timepoint” value is “no observed re-growth” and the “timepoint at which bactericidal activity was displayed” value is 2 h. Besides, the reduction of viability with E. coli NCTC 13441 (2-h timepoint) was more than 3 log10 CFU/mL.
